# Results: patent publication US20240108641A1, “COMPOSITIONS FOR ORAL ADMINISTRATION OF ZOLEDRONIC ACID OR RELATED COMPOUNDS FOR TREATING DISEASE” (ANTECIP BIOVENTURES II LLC, priority 2012, published 2024)
# Experiments:
# [1] = phase 1 clinical trial, bioavailability and pharmacokinetics of the oral dosage form versus IV Zometa; assay type: in vivo, human
# Protocol: Dose amounts are based upon the weights of the molar equivalent amounts of the diacid form of zoledronic acid (e.g., the 50 mg oral dose contains about 71 mg of the disodium zoledronate tetrahydrate form). The dosage form had the composition shown in Table 3, and was coated with Opadry White, which as 3-5 wt % of the coated tablet. These dosage forms were free of bioavailability enhancing agents. For convenience, the dosage form described in Table 3 will be described in this Example as “the oral dosage form.”
# Each subject received 2 of the following 4 treatments: one unit of the oral dosage form for a 50 mg dose (“the 50 mg oral dose”), two units of the oral dosage form taken together for a 100 mg dose (“the 100 mg oral dose”), or three units of the oral dosage form taken together for a 150 mg dose (“the 150 mg oral dose”), or a 1 mg IV dose of zoledronic acid (Zometa®). Each treatment was separated by a wash-out period of approximately 14 days. Blood samples were collected for 72 hours post-dose to characterize zoledronic acid pharmacokinetics. Blood samples were collected pre-dose and 7 and 14-15 days post-dose to measure the effects of the oral disodium tetrahydrate form of zoledronic acid and IV zoledronic acid on biomarkers of bone resorption.
# All study medications which were orally administered were given with approximately 240 mL of water. Subjects remained upright for the first hour following study medication administration. Zoledronic acid IV infusion was at least 15 minutes in duration. All study medication was administered under fasting conditions.
# Each treatment was separated by a washout period of approximately 14 days. Blood samples were collected for 72 hours post-dose to characterize zoledronic acid pharmacokinetics. Blood samples were collected pre-dose and 7 and 14-15 days post-dose to measure the effects of the oral dosage form and IV zoledronic acid on serum CTx.
# [2] = tested on: arthritis pain (mechanical hyperalgesia); test: rat complete Freund's adjuvant (CFA) model of arthritis pain; assay type: in vivo; settings: oral administration; day 14 post CFA
# Protocol: The effect of orally administered zoledronic acid on arthritis pain was examined in the rat complete Freund's adjuvant (CFA) model of arthritis pain. In this model, injection of 100% complete Freund's adjuvant (CFA) in a 75 μL volume into the left hind paws is followed by a 10-14 day period to allow for the development of arthritis pain. Animals were orally administered vehicle (control), zoledronic acid 54 mg/m^2 (or 9 mg/kg), or zoledronic acid 360 mg/m^2 (or 60 mg/kg), divided in three equal daily doses on the first three days post CFA injection. Drug was dissolved in distilled water and prepared fresh daily. Animals were fasted prior to dosing.
# Arthritis pain (mechanical hyperalgesia) in the vehicle and drug-treated animals was evaluated on day 14 post CFA injection using a digital Randall-Selitto device (dRS; IITC Life Sciences, Woodland Hills, CA). Animals were placed in a restraint sling that suspended the animal, leaving the hind limbs available for testing. Paw compression threshold was measured by applying increasing pressure to the plantar surface of the hind paw with a dome-shaped tip placed between the 3rd and 4th metatarsus. Pressure was applied gradually over approximately 10 seconds. […]
# Reversal of arthritis pain in the ipsilateral (CFA-injected) paw was calculated according to the formula: […]
# [3] = tested on: inflammatory pain (mechanical hyperalgesia); assay type: in vivo, Sprague-Dawley rats
# Protocol: The effect of orally administered zoledronic acid on inflammatory pain was examined using the rat complete Freund's adjuvant (CFA) model. Inflammatory pain was induced by injection of 100% CFA in a 75 μL volume into the left hind paws of Sprague-Dawley® rats on day 0, followed by assessments on days 1-3. Animals were orally administered vehicle (control), zoledronic acid 18 mg/m^2 (or 3 mg/kg), zoledronic acid 120 mg/m^2 (or 20 mg/kg), or zoledronic acid 900 mg/m^2 (or 150 mg/kg) daily on days 1-3. Drug was dissolved in distilled water and prepared fresh daily. Animals were fasted prior to dosing. Under current FDA guidelines for extrapolating starting dosages from animals to humans, dosages expressed in mg/m^2 are considered equivalent between mammalian species. Thus, for example, 18 mg/m^2 in a rat is considered equivalent to 18 mg/m^2 in a human being, while 3 mg/kg in a rat may not be equivalent to 3 mg/kg in a human being.
# Values for inflammatory pain (mechanical hyperalgesia) in the vehicle and drug-treated animals were obtained on day 0 prior to CFA injection, and at baseline and post-treatment on days 1-3. Pain was assessed using a digital Randall-Selitto device (dRS; IITC Life Sciences, Woodland Hills, CA). Animals were placed in a restraint sling that suspended the animal, leaving the hind limbs available for testing. Paw compression threshold was measured by applying increasing pressure to the plantar surface of the hind paw with a dome-shaped tip placed between the 3rd and 4th metatarsus. Pressure was applied gradually over approximately 10 seconds. Measurements were taken from the first observed nocifensive behavior of vocalization, struggle or withdrawal. A cut-off value of 300 g was used to prevent injury to the animal.
# Reversal of inflammatory pain was calculated according to the formula:
# % reversal=(Post-treatment−Post-CFA baseline)/(Pre-CFA baseline−Post-CFA baseline)×100.
# The experiment was carried out using 9-10 animals per group.
smiles,measurement,setting,value
O=P(O)(O)C(O)(Cn1ccnc1)P(=O)(O)O [zoledronic acid],Sustained Plasma Factor,[1]; 1 mg IV,4.6
same,Sustained Plasma Factor,[1]; 50 mg oral dose,13.5
same,Sustained Plasma Factor Ratio (oral/IV),[1]; 50 mg oral dose versus 1 mg IV,2.9
same,Sustained Plasma Factor,[1]; 100 mg oral dose,11.7
same,Sustained Plasma Factor Ratio (oral/IV),[1]; 100 mg oral dose versus 1 mg IV,2.5
same,Sustained Plasma Factor,[1]; 150 mg oral dose,15.1
same,Sustained Plasma Factor Ratio (oral/IV),[1]; 150 mg oral dose versus 1 mg IV,3.3
same,arthritis pain thresholds compared to vehicle,[2],significantly improved
same,paw compression thresholds compared to vehicle,"[3]; 120 mg/m^2 (20 mg/kg) oral daily, all time points",approximately equal or inferior to vehicle
same,toxicity,"[3]; 900 mg/m^2 oral daily days 1-3, euthanization of all animals two days after cessation of dosing",significant toxicity
same,inflammatory pain thresholds compared to vehicle,[3]; oral administration,significantly improved
